“And” between values parts separate entries of the source, which are not always exact repeats. Equal entries are not always repeated. Where two headings read alike, the source gives them in different places.

In data set [1] the target is T1, detergent-solubilized EmrE (Escherichia coli, UniProt P23895).
T1 construct: full-length EmrE (110 aa), organic-extracted, solubilized in DDM, purified from E. coli BL21(DE3); unfused
The experiment in a line: tryptophan fluorescence quenching titration (excitation […] nm). The class given is binding.

Data set [2] concerns the molecule itself. The data set can be described thus: SEC; detergent-free fusion proteins after affinity purification; SEC buffer 20 mM Tris pH 7.5, 50 mM NaCl, 1 mM EDTA pH 8.0; column calibrated with Bio-Rad standards; self-association of the fusion. (SEC sorts molecules by how far they enter the pores of the column.)

`CC[n+]1c(-c2ccccc2)c2cc(N)ccc2c2ccc(N)cc21` [ethidium bromide]: the Kd (in general, the constant that tells how readily two partners part at equilibrium) in data set [1] (read-out: Kd) came to 5.4 ± 0.47 µM.
Take `c1ccc([P+](c2ccccc2)(c2ccccc2)c2ccccc2)cc1` [tetraphenylphosphonium]: the Kd entry in data set [1] (20 mM Tris-HCl pH 7.5, 150 mM NaCl, 0.08% w/v DDM, 10 μM protein, room temperature) is listed as “higher for ApoAI*-solubilized EmrE compared with its detergent-solubilized counterpart”.

B1: ΔspMBP-EmrE-ApoAI* (other)
chain: MNPYIYLGGAILAEVIGTTLMKFSEGFTRLWPSVGTIICYCASFWLLAQTLAYIPTGIAYAIWSGVGIVLISLLSWGFFGQRLDLPAIIGMMLICAGVLIINLLSRSTPHLKLLDNWDSVTSTFSKLREQLGPVTQEFWDNLEKETEGLRQEMSKDLEEVKAKVQPYLDDFQKKWQEEMELYRQKVEPLRAELQEGARQKLHELQEKLSPLGEEMRDRARAHVDALRTHLAPYSDELRQRLAARLEALKENGGARLAEYHAKATEHLSTLSEKAKPALEDLRQGLLPVLESFKVSFLSALEEYTKKLNTQ
With B1, the stoichiometry N (in general, the number of molecules, sites or subunits per partner or assembly) in data set [2] was 2 and 4.

B2: ΔspMBP-cyt b5-ApoAI* (other)
chain: MAEQSDEAVKYYTLEEIQKHNHSKSTWLILHHKVYDLTKFLEEHPGGEEVLREQAGGDATENFEDVGHSTDAREMSKTFIIGELHPDDRPKLNKPPETLITTIDSSSSWWTNWVIPAISAVAVALMYRLYMAEDLKLLDNWDSVTSTFSKLREQLGPVTQEFWDNLEKETEGLRQEMSKDLEEVKAKVQPYLDDFQKKWQEEMELYRQKVEPLRAELQEGARQKLHELQEKLSPLGEEMRDRARAHVDALRTHLAPYSDELRQRLAARLEALKENGGARLAEYHAKATEHLSTLSEKAKPALEDLRQGLLPVLESFKVSFLSALEEYTKKLNTQ
On to B2, for which the “stoichiometry N” value in data set [2] was 8 and 4.

These data come from article PMC4403311, “Making water-soluble integral membrane proteins in vivo using an amphipathic protein fusion strategy” (Nature Communications, 2015).
